The source of these data is patent US20230203095A1, “BIOLOGICAL PEPTIDE FOR TREATING LUNG DISEASES AND APPLICATION THEREOF” (SHANGHAI INSTITUTE OF PHARMACEUTICAL INDUSTRY CO., LTD., priority 2019, published 2023).

Data set [1] has as its system OVA-induced asthma model mice. The data set is described as follows: Lung function (inspiratory airway resistance, lung compliance) in OVA-induced allergic asthma model mice. The conditions noted are these: for Inspiratory airway resistance / Lung compliance: 2 mg/kg/day i.p., n=10. It is filed as in vivo, BALB/c mice. The procedure: The second batch: mice were divided into groups, 10 mice in each group, namely: blank control group (normal saline), model group (OVA, dose of 20 ug/mouse), SP peptide group (administered dose of 87.5 µg/kg body weight/ day, 175 µg/kg body weight/day, 350 µg/kg body weight/day, respectively), SIPI-D00 peptide group (administered dose of 87.5 µg/kg body weight/day, 175 µg/kg body weight/day, 350 µg/kg body weight/day), and Dexamethasone group (administered dose of 2 mg/kg body weight/day).
(§1) Mice in the model group, SP peptide group, SIPI-D00 peptide group and dexamethasone group were sensitized by intraperitoneal injection of OVA (20 µg OVA/mice) on day 0, 7, and 14, and challenged by aerosol administration of OVA (once a day for 5 consecutive days) on day 21-25 to construct asthmatic model animals. Mice in the model group were given normal saline on days 21-28; mice in different doses of SP peptide group and SIPI-D00 peptide group were injected subcutaneously with different doses of SP and SIPI-D00 on days 19-28; mice in dexamethasone group were injected intraperitoneally with 2 mg/kg/day dexamethasone on days 21-28. At the same time, 10 mice in the blank control group were fed normally from day 0 to day 28 without any treatment, and were given normal saline as a blank control.
On the 28th day, the mice were anesthetized with tracheal intubation and jugular vein intubation, and the inspiratory airway resistance and lung compliance were measured in each group of animals. Each animal was given fold increasing amounts of methacholine via the jugular vein: 0.025 mg/kg, 0.05 mg/kg, 0.1 mg/kg, 0.2 mg/kg. After each dose was given, the lung compliance curve was recorded continuously for 5 minutes, and the inspiratory airway resistance and lung compliance were calculated. […]
(§2) At the same time, 10 mice in the blank control group were fed normally from day 0 to day 28 without any treatment, and were given normal saline as a blank control.

Data set [2] has as its system serum IgE. As to the kind of experiment: Serum IgE level in OVA-induced allergic asthma model mice. The conditions noted are these: 2 mg/kg/day intraperitoneal, days 21-28, n=10. It is filed as in vivo, BALB/c mice. The procedure: (§3) The first batch: mice were divided into groups, 10 mice in each group, namely: blank control group (normal saline), model group (OVA, 20 ug/mouse), SP peptide group (administered dose of 175 µg/kg body weight/day, 350 µg/kg body weight/day, respectively), SIPI-D00 peptide group (administered dose of 175 µg/kg body weight/day, 350 µg/kg body weight/day), and dexamethasone group (administered dose of 2 mg/kg body weight/day).
OVA for sensitization was dissolved in sterile PBS solution at a final concentration of 0.2 mg/mL, then an equal volume of aluminum hydroxide adjuvant was added. After shaking for 30 minutes, each mouse was intraperitoneally injected with 0.2 mL (20 µg OVA per mouse).
2% OVA solution was prepared in sterile PBS. The 2% OVA was nebulized with a nebulizer, and the mice were placed in the nebulizer inhalation box for 30 minutes per day.
According to the dosage, SP peptide and SIPI-D00 were dissolved in normal saline respectively, and administered by subcutaneous administration on the back according to the body weight of the animals.
as §1
After 28 days, blood was collected from the inner canthus of the mouse, and the serum was collected, and the IgE level in the serum was measured with an ELISA kit. […]
as §2

Data set [3] relates to OVA-induced asthma model mice. The data set is described as follows: Lung pathology (H&E) of OVA-induced asthma model mice. Format: in vivo, BALB/c mice. The conditions noted are these: positive control group (dexamethasone 2 mg/kg body weight/day), after 28 days. The procedure:
as §3, §1
After 28 days, the mouse lung tissue was taken out, fixed in 4% formaldehyde, embedded in paraffin, sectioned, and stained with H&E for pathological observation.
The first batch: mice were divided into groups, 10 mice in each group, namely: blank control group (normal saline), model group (OVA, 20 ug/mice), and SP peptide group (administered dose of 175 µg/kg body weight/day, 350 µg/kg body weight/day, respectively), SIPI-G5 peptide group (administered dose of 175 µg/kg body weight/day, 350 µg/kg body weight/day), dexamethasone group (administered dose of 2 mg/kg body weight/day).
as §2

Data set [4] in a line: Stability of each 7-peptide compound in rat whole blood. It is filed as in vitro ADME. The conditions noted are these: for stability in whole blood: compared with SP peptide; for recovery: rat whole blood, 37° C., 1000 ng/mL, read-out: Recovery rate (%) M±SD. The procedure:
Preparation of the test product: SP and SIPI-D00 were dissolved and diluted with an appropriate amount of 50% acetonitrile water containing 0.1% formic acid to obtain a working solution with a concentration of 200 µg/mL.
• 1) Fresh rat whole blood was added to the EP tube, and shaken gently to mix well; • 2) The EP tube was pre-incubated in a 37° C. water bath for 5 minutes; • 3) Each compound was added to start the reaction and continued to incubate at 37° C.; • 4) 50 µL sample was taken from the sample tube at 0, 2 min, 5 min, 10 min, 30 min, and 60 min, respectively, into the stop tube, 50 µL of ice-cold 7% perchloric acid was added, and shaken to stop the reaction; • 5) Sample was centrifuged at 13000 r/min for 10 min, 75 µL supernatant was aspirated, 60 µL1.25% ammonia water was added and mixed well. After filtered with […] microporous membrane, 20 µL sample was taken for LC-MS/MS analysis.

Where two headings read alike, the source gives them in different places. Peptide text beside a SMILES is read from it. * marks the point of attachment. X1 = CC(=O)N[C@H]1C(*)O[C@H](CO)[C@@H](O)[C@@H]1O

With `C[C@@H]1C[C@H]2[C@@H]3CCC4=CC(=O)C=C[C@]4(C)[C@@]3(F)[C@@H](O)C[C@]2(C)[C@@]1(O)C(=O)COP(=O)([O-])[O-].[Na+].[Na+]` [Dexamethasone, dexamethasone sodium phosphate, reference compound], the Inspiratory airway resistance in data set [1] (methacholine 0 mg/kg) came out at 1.00±0.00; in data set [1] (methacholine 0.025 mg/kg), 1.06±0.08; in data set [1] (methacholine 0.05 mg/kg) it was 1.15±0.14; in data set [1] (methacholine 0.1 mg/kg) it was 1.20±0.21; in data set [1] (methacholine 0.2 mg/kg), 1.23±0.17. The Lung compliance in data set [1] (methacholine 0 mg/kg) is recorded as 1.00±0.00; in data set [1] (methacholine 0.025 mg/kg), 0.97±0.10; in data set [1] (methacholine 0.05 mg/kg), 0.89±0.14; in data set [1] (methacholine 0.1 mg/kg), 0.87±0.22; in data set [1] (methacholine 0.2 mg/kg), 0.83±0.14. Also, in data set [1] (compared with the model group), the “inspiratory phase resistance (in words)” value is reported as “significantly reduced”. In addition, the “lung compliance (in words)” value in data set [1] (compared with the model group) was “significantly increased”. Also, the “Serum IgE level (OD450)” value in data set [2] amounted to 0.285 ± 0.041 OD450. Also, the “lung pathology, H&E” value in data set [3] was “a small amount of inflammatory cell infiltration in the lungs, but the alveolar cavity is seriously damaged”.
For `CC(=O)N[C@H]1C(OC[C@H](NC(=O)[C@@H](NC(=O)[C@H](Cc2ccc(O)cc2)NC(=O)[C@@H](NC(=O)[C@H](CCC(N)=O)NC(=O)CN)[C@@H](C)OC2O[C@H](CO)[C@@H](O)[C@H](O)[C@H]2NC(C)=O)[C@@H](C)OC2O[C@H](CO)[C@@H](O)[C@H](O)[C@H]2NC(C)=O)C(=O)NCC(=O)O)O[C@H](CO)[C@@H](O)[C@@H]1O` (some centres unmarked) [SIPI-G4, GQT(Glc)YT(Glc)S(Glc)G] (H-GQT(X1)YT(X1)S(X1)G-OH), in data set [4], the “stability in whole blood” value is “significantly higher than that of SP peptide”. The recovery in data set [4] (incubation time 0 min) is 100%; in data set [4] (incubation time 2 min), 94.6 ± 8.5%; in data set [4] (incubation time 5 min), 87.3 ± 5.6%; in data set [4] (incubation time 10 min), 87.2 ± 5.9%; in data set [4] (incubation time 30 min), 77.7 ± 8.1%; in data set [4] (incubation time 60 min), 77.1 ± 2.3%.
Regarding `CC(=O)N[C@H]1C(O[C@H](C)[C@H](NC(=O)[C@H](CCC(N)=O)NC(=O)CN)C(=O)N[C@@H](Cc2ccc(O)cc2)C(=O)N[C@H](C(=O)N[C@@H](CO)C(=O)NCC(=O)O)[C@@H](C)O)O[C@H](CO)[C@@H](O)[C@@H]1O` (some centres unmarked) [SIPI-G6, GQT(Glc)YTSG] (H-GQT(X1)YTSG-OH), the “stability in whole blood” value in data set [4] is recorded as “significantly higher than that of SP peptide”. In addition, the recovery in data set [4] (incubation time 0 min) was 100%; in data set [4] (incubation time 2 min), 86.1 ± 1.8%; in data set [4] (incubation time 5 min), 81.3 ± 8.3%; in data set [4] (incubation time 10 min) it was 73.4 ± 2.6%; in data set [4] (incubation time 30 min) it was 59.7 ± 8.8%; in data set [4] (incubation time 60 min), 51.1 ± 4.9%.
Turning to `CC(=O)N[C@H]1C(O[C@H](C)[C@H](NC(=O)[C@H](Cc2ccc(O)cc2)NC(=O)[C@@H](NC(=O)[C@H](CCC(N)=O)NC(=O)CN)[C@@H](C)OC2O[C@H](CO)[C@@H](O)[C@H](O)[C@H]2NC(C)=O)C(=O)N[C@@H](CO)C(=O)NCC(=O)O)O[C@H](CO)[C@@H](O)[C@@H]1O` (some centres unmarked) [SIPI-G8, GQT(Glc)YT(Glc)SG] (H-GQT(X1)YT(X1)SG-OH), the “stability in whole blood” value in data set [4] is recorded as “significantly higher than that of SP peptide”. Besides, the recovery turned out to be 100% in data set [4] (incubation time 0 min); 83.6 ± 8.1% in data set [4] (incubation time 2 min); 83.2 ± 6.1% in data set [4] (incubation time 5 min); 80.7 ± 2.3% in data set [4] (incubation time 10 min); 71.2 ± 6.3% in data set [4] (incubation time 30 min); 58.6 ± 4.8% in data set [4] (incubation time 60 min).
